According to the supplement of paper PMC10307832:

Experiments:
Assay in all cases: relative viability (nuclei count vs DMSO), 5 days (fraction); higher = more cells survive
[1] = compound: Cn1cc(-c2cnn3c(N)c(Br)c([C@@H]4CCCNC4)nc23)cn1 + Cc1nc(Nc2ncc(C(=O)Nc3c(C)cccc3Cl)s2)cc(N2CCN(CCO)CC2)n1 [Dasatinib] (partner 0.075 µM)
Summary of the method: (§1)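 Relative viability divides the nuclei count in treated wells by that in vehicle wells. Lung cancer cell lines were seeded in 1536-well plates, dosed by pin tool the next day, and fixed and stained after 5 days in one step with final 0.05% Triton X-100, 1% formaldehyde and 1 ug/ml Hoechst. Dosing was a single drug or a fixed anchor-drug dose plus five library-drug doses (not always all listed) in √10 steps, and values are medians of duplicate plates imaged at 4×.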

[2] = compound: Cn1cc(-c2cnn3c(N)c(Br)c([C@@H]4CCCNC4)nc23)cn1 + CC1(C)CCC(c2ccc(Cl)cc2)=C(CN2CCN(c3ccc(C(=O)NS(=O)(=O)c4ccc(N[C@H](CCN5CCOCC5)CSc5ccccc5)c(S(=O)(=O)C(F)(F)F)c4)cc3)CC2)C1 [Navitoclax] (partner 0.5 µM)
Summary of the method: as §1

[3] = compound: Cn1cc(-c2cnn3c(N)c(Br)c([C@@H]4CCCNC4)nc23)cn1 + O=C(CCCCCCC(=O)Nc1ccccc1)NO [Vorinostat] (partner 1 µM)
Summary of the method: as §1

[4] = compound: Cn1cc(-c2cnn3c(N)c(Br)c([C@@H]4CCCNC4)nc23)cn1 + C[C@@H](Oc1cc(-c2cnn(C3CCNCC3)c2)cnc1N)c1c(Cl)ccc(F)c1Cl [Crizotinib] (partner 1 µM)
Summary of the method: as §1

Cell Line	relative viability ([1]; first compound 0.05 µM)	relative viability ([1]; first compound 0.1581 µM)	relative viability ([1]; first compound 0.5 µM)	relative viability ([1]; first compound 1.581 µM)	relative viability ([1]; first compound 5 µM)	relative viability ([2]; first compound 0.05 µM)	relative viability ([2]; first compound 0.1581 µM)	relative viability ([2]; first compound 1.581 µM)	relative viability ([2]; first compound 5 µM)	relative viability ([3]; first compound 0.05 µM)	relative viability ([3]; first compound 0.1581 µM)	relative viability ([3]; first compound 0.5 µM)	relative viability ([3]; first compound 1.581 µM)	relative viability ([3]; first compound 5 µM)	relative viability ([4]; first compound 0.05 µM)	relative viability ([4]; first compound 0.1581 µM)	relative viability ([4]; first compound 1.581 µM)	relative viability ([4]; first compound 5 µM)	relative viability ([2]; first compound 0.5 µM)	relative viability ([4]; first compound 0.5 µM)
NCI-H1993	0.619	0.601	0.545	0.549	0.507	0.793	0.898	0.873	0.831	0.803	0.873	0.921	0.713	0.636	0.76	0.878	0.933	0.702	–	–
NCI-H838	0.196	0.298	0.277	0.284	0.254	1.15	1.21	1.08	1.16	0.788	0.779	0.742	0.65	0.527	0.925	0.987	0.785	0.561	1.08	0.783
NCI-H1648	–	–	–	–	–	–	–	–	–	0.449	0.296	0.313	0.327	0.463	–	–	–	–	–	–
LCLC-103H	0.511	0.449	0.412	0.425	0.289	–	–	–	–	0.738	0.879	0.824	0.615	0.597	1.04	1.11	1.03	1.1	–	1.13
SW 900	0.496	0.585	0.671	0.448	0.197	–	–	–	–	0.47	0.362	0.648	0.369	0.181	–	–	–	–	–	–
IA-LM	–	–	–	–	–	0.858	0.974	0.412	0.252	1.11	1.12	1.11	0.672	0.64	0.944	1.01	0.321	0.271	0.609	0.886
NCI-H1563	0.418	0.451	0.503	0.436	0.412	–	–	–	–	–	–	–	–	–	0.78	0.812	0.782	0.8	–	0.933
HCC-44	–	–	–	–	–	0.94	1.05	0.916	1.18	1.08	1.13	1.22	1.08	1.12	0.906	1.02	0.86	0.789	1.23	0.913
NCI-H358	0.131	0.155	0.156	0.167	0.148	–	–	–	–	0.748	0.732	0.422	0.455	0.302	0.586	0.575	0.655	0.339	–	0.375
ABC-1	0.479	0.561	0.497	0.484	0.301	–	–	–	–	–	0.955	1.04	1.02	0.356	1.16	0.935	0.563	0.316	–	1.06
NCI-H522	0.785	0.849	0.551	0.828	0.831	–	–	–	–	0.845	0.936	0.871	0.842	0.797	–	–	–	–	–	–
NCI-H1792	–	0.852	0.624	0.933	0.425	0.35	0.674	0.366	0.677	–	–	–	–	–	0.843	0.861	0.656	0.582	0.322	0.861
